In patent US20020172704A1, “Planting method and biodegradable material for preventing pests” (priority 2001, published 2002):
Marks after values point to notes of the source that are not given here.

System: golden apple snail (Pomacea canaliculata (Lamarck))
Assay: Hurting rate and death rate of golden apple snails on SDS-added paper mat round boards on wet paddy soil in Petri dishes
Type: in vivo
Conditions: for Death Rate (%) / Hurting Rate (%): average after three days, paper mat
Experimental: The glutinous solutions with different SDS densities (100, 500, 1000, 2000, 5000, 7500, and 10000 ppm) are prepared in advance, and the paper mat made by YUEN FOONG YU PAPER MFG Co., Ltd is also cut into many round boards having a diameter of 9 cm.
The test is done by the following steps. At first, each of the round boards is dripped with 2 ml of one of the glutinous solutions respectively. The round boards are dried in an oven at a temperature of 30° C. Then, the soil taken from the paddy field is added with water to simulate the natural environment. Each of the dried SDS-added round boards is bedded on 50 g of the wet soil in a Petri dish respectively. Finally, each of the dishes is added with 10 ml water and put 10 golden apple snails thereon.
Two other groups are prepared for comparison. […] All the three groups are observed in a greenhouse.

[1] = Conc. of SDS solution 100 ppm, snail size 3.28 ± 0.43 g/per snail
[2] = Conc. of SDS solution 500 ppm, snail size 3.28 ± 0.43 g/per snail
[3] = Conc. of SDS solution 1000 ppm, snail size 3.28 ± 0.43 g/per snail
[4] = Conc. of SDS solution 2500 ppm, snail size 0.82 ± 0.26 g/per snail
[5] = Conc. of SDS solution 5000 ppm, snail size 0.82 ± 0.26 g/per snail
[6] = Conc. of SDS solution 7500 ppm, snail size 0.82 ± 0.26 g/per snail
[7] = Conc. of SDS solution 10000 ppm, snail size 0.82 ± 0.26 g/per snail

## CCCCCCCCCCCCOS(=O)(=O)[O-].[Na+] [SDS, sodium dodecyl sulfate]
[1]
  Death Rate (%): 0.00%
  Hurting Rate (%): 3.33* %
[2]
  Death Rate (%): 3.33%
  Hurting Rate (%): 6.67%
[3]
  Death Rate (%): 10.00%
  Hurting Rate (%): 23.33%
Conc. of SDS solution 2000 ppm, snail size 3.28 ± 0.43 g/per snail
  Death Rate (%): 10.00%
[4]
  Death Rate (%): 100.00%
  Hurting Rate (%): 100.00* %
[5]
  Death Rate (%): 100.00%
  Hurting Rate (%): 100.00%
[6]
  Death Rate (%): 100.00%
  Hurting Rate (%): 100.00%
[7]
  Death Rate (%): 100.00%
  Hurting Rate (%): 100.00%
Smaller snails, SDS concentrations above 2500 ppm (summary of Table 2)
  hurting rate: ~100.00%
